Assay results taken from the supplement of paper PMC11208160.

Assay: recombinant barcode read abundance after kanamycin selection (control-corrected) (log10(CPM+1)); higher = more efficient recombination; sequences stand for … in AGTGCAGAGAAAATCGGCCAGTTTTCTCTGCCTGCAGTCCGCATGCCGT…AGATTTATGCAGCGGACTGCCTTTCTCCCAAAGTGATAAACCGGACAGTATCATGGACCGGTTTTCCCGGTAATCCGTATTTGCAAGGTTGGTTTCACT; site = the 11-nt target
In short: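 Recombination efficiency comes from barcode counts at recombinant junctions, converted to counts per million, averaged and corrected against the control. Values appear as log10(CPM+1). They were obtained from a pooled E. coli screen in which each oligo paired a target with an IS621 bridge RNA target-binding loop, and cells were plated in duplicate on chloramphenicol/ampicillin LB agar or on chloramphenicol/ampicillin/kanamycin with 0.1 mM IPTG.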
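Note: IS621 recombinase and bridge RNA in Escherichia coli cells.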

Sequence	recombinant barcode read abundance (log10)
GTCTATGCTTGGGTTCTAACCTGTTGCCT (site GGCTATGCTAG)	0.185
GTCTATGCTTGGGTTCTAACCTGTTGCCT (site GTCTATGCTAG)	0.0906
GTCTCAACTTGGGTTCTAACCTGTTGCCT (site GTCTCAACTAG)	0.604
GTCTCAACTTGGGTTCTAACCTGTTGCCT (site TTCTGAACTAG)	0.0305
GTCTCATCTTGGGTTCTAACCTGTTGCAT (site AGTATCCCTCG)	0.0153
GTCTCATCTTGGGTTCTAACCTGTTGCAT (site GTCTCATCTAT)	0.362
GTCTCTACTTGGGTTCTAACCTGTTGCGG (site GTCGCTACTCC)	0
GTCTCTACTTGGGTTCTAACCTGTTGCGG (site GTCTCTACTCC)	0.00855
GTCTCTCCTTGGGTTCTAACCTGTTGCAG (site AAGGGCTCTAA)	0.0245
GTCTCTCCTTGGGTTCTAACCTGTTGCAG (site GTCTCTCCTCT)	0.0635
GTCTCTCCTTGGGTTCTAACCTGTTGCCG (site GTCTCTCCTCG)	0.0734
GTCTCTCCTTGGGTTCTAACCTGTTGCCG (site GTGTCTCCTCG)	0.0724
GTCTGATCTTGGGTTCTAACCTGTTGCCT (site GTCTAATCTAG)	0.0854
GTCTGATCTTGGGTTCTAACCTGTTGCCT (site GTCTCATCTAG)	0.113
GTCTGATCTTGGGTTCTAACCTGTTGCCT (site GTCTGATCTAG)	0.97
GTCTGATCTTGGGTTCTAACCTGTTGCCT (site GTCTTATCTAG)	0.186
GTCTGCCCTTGGGTTCTAACCTGTTGCCT (site GACTGCCCTAG)	0.181
GTCTGCCCTTGGGTTCTAACCTGTTGCCT (site GCCTGCCCTAG)	0.191
GTCTGCCCTTGGGTTCTAACCTGTTGCCT (site GGCTGCCCTAG)	0.239
GTCTGCCCTTGGGTTCTAACCTGTTGCCT (site GTCTGCCCTAG)	1.73
GTCTTAACTTGGGTTCTAACCTGTTGCCG (site GTCTTAACTCG)	0.338
GTCTTAACTTGGGTTCTAACCTGTTGCCG (site GTCTTGACTTG)	0.0525

Sequence	recombinant barcode read abundance (log10)
GTGAACTCTTGGGTTCTAACCTGTTGCCT (site GTAAACTCTAG)	1.56
GTGAACTCTTGGGTTCTAACCTGTTGCCT (site GTCAACTCTAG)	0.0453
GTGAACTCTTGGGTTCTAACCTGTTGCCT (site GTGAACTCTAG)	1.85
GTGAACTCTTGGGTTCTAACCTGTTGCCT (site GTTAACTCTAG)	0.542
GTGAGATCTTGGGTTCTAACCTGTTGCCT (site GTGAGATCTAG)	1.06
GTGAGATCTTGGGTTCTAACCTGTTGCCT (site GTGGAATCTAG)	0.079
GTGAGCCCTTGGGTTCTAACCTGTTGCCG (site GTGAGCCCTCG)	1.01
GTGAGCCCTTGGGTTCTAACCTGTTGCCG (site GTGCGCTCTCG)	0.0474
GTGAGTCCTTGGGTTCTAACCTGTTGCGG (site GTAAGTCCTTC)	0.24
GTGAGTCCTTGGGTTCTAACCTGTTGCGG (site GTGAGTCCTCC)	2.42
GTGATGTCTTGGGTTCTAACCTGTTGCCT (site GAGATGTCTAG)	0.701
GTGATGTCTTGGGTTCTAACCTGTTGCCT (site GCGATGTCTAG)	0.321
GTGATGTCTTGGGTTCTAACCTGTTGCCT (site GGGATGTCTAG)	0.279
GTGATGTCTTGGGTTCTAACCTGTTGCCT (site GTGATGTCTAG)	2.17
GTGCACTCTTGGGTTCTAACCTGTTGCGG (site GTGCACACTCC)	0
GTGCACTCTTGGGTTCTAACCTGTTGCGG (site GTGCACTCTCC)	2.13
GTGCTAACTTGGGTTCTAACCTGTTGCCA (site ATGCTAACTAG)	0.0637
GTGCTAACTTGGGTTCTAACCTGTTGCCA (site GTGCTAACTTG)	0.626
GTGGAAGCTTGGGTTCTAACCTGTTGCCA (site GTGAAAGCTTG)	0.158
GTGGAAGCTTGGGTTCTAACCTGTTGCCA (site GTGGAAGCTTG)	0.238
GTGGAGTCTTGGGTTCTAACCTGTTGCCT (site GTAGAGTCTAA)	0.577
GTGGAGTCTTGGGTTCTAACCTGTTGCCT (site GTGGAGTCTAG)	2.5

Sequence	recombinant barcode read abundance (log10)
GTGGGAACTTGGGTTCTAACCTGTTGCTT (site GTGGGAACTAA)	1.97
GTGGGAACTTGGGTTCTAACCTGTTGCTT (site TCCTATCCTTC)	0.0252
GTGGTACCTTGGGTTCTAACCTGTTGCAT (site ACACGGACTTA)	0.0235
GTGGTACCTTGGGTTCTAACCTGTTGCAT (site GTGGTACCTAT)	2.48
GTGGTACCTTGGGTTCTAACCTGTTGCCT (site GTGGTAACTAG)	0.885
GTGGTACCTTGGGTTCTAACCTGTTGCCT (site GTGGTACCTAG)	2.77
GTGGTACCTTGGGTTCTAACCTGTTGCCT (site GTGGTAGCTAG)	0.0565
GTGGTACCTTGGGTTCTAACCTGTTGCCT (site GTGGTATCTAG)	0.391
GTGGTTCCTTGGGTTCTAACCTGTTGCCT (site GTGGTTCCTAG)	1.61
GTGGTTCCTTGGGTTCTAACCTGTTGCCT (site GTTGGTCCTAG)	0.112
GTGTACCCTTGGGTTCTAACCTGTTGCCT (site GAGTACCCTAG)	0.64
GTGTACCCTTGGGTTCTAACCTGTTGCCT (site GCGTACCCTAG)	1.13
GTGTACCCTTGGGTTCTAACCTGTTGCCT (site GGGTACCCTAG)	0.068
GTGTACCCTTGGGTTCTAACCTGTTGCCT (site GTGTACCCTAG)	0.918
GTGTACCCTTGGGTTCTAACCTGTTGCGC (site GTGTACCCTAC)	0.587
GTGTACCCTTGGGTTCTAACCTGTTGCGC (site GTGTACCCTCC)	0.141
GTGTACCCTTGGGTTCTAACCTGTTGCGC (site GTGTACCCTGC)	3.13
GTGTACCCTTGGGTTCTAACCTGTTGCGC (site GTGTACCCTTC)	0.31
GTGTACCCTTGGGTTCTAACCTGTTGCGT (site GTGTACCCTAC)	3.59
GTGTACCCTTGGGTTCTAACCTGTTGCGT (site GTGTACCCTCC)	1.66
GTGTACCCTTGGGTTCTAACCTGTTGCGT (site GTGTACCCTGC)	2.29
GTGTACCCTTGGGTTCTAACCTGTTGCGT (site GTGTACCCTTC)	0.185

Sequence	recombinant barcode read abundance (log10)
GTGTATACTTGGGTTCTAACCTGTTGCAT (site GTGTATACTAT)	0.589
GTGTATACTTGGGTTCTAACCTGTTGCAT (site TAACTAGCTTA)	0.0503
GTGTATCCTTGGGTTCTAACCTGTTGCTT (site GTGCCTCCTAA)	0.0308
GTGTATCCTTGGGTTCTAACCTGTTGCTT (site GTGTATCCTAA)	0.664
GTGTCAACTTGGGTTCTAACCTGTTGCCT (site GTGTCAACTAG)	0.343
GTGTCAACTTGGGTTCTAACCTGTTGCCT (site GTGTCACCTAG)	0.0106
GTGTCAACTTGGGTTCTAACCTGTTGCCT (site GTGTCAGCTAG)	0.0423
GTGTCAACTTGGGTTCTAACCTGTTGCCT (site GTGTCATCTAG)	0.0225
GTGTCAGCTTGGGTTCTAACCTGTTGCCT (site GTGTCAACTAG)	0.166
GTGTCAGCTTGGGTTCTAACCTGTTGCCT (site GTGTCACCTAG)	0.383
GTGTCAGCTTGGGTTCTAACCTGTTGCCT (site GTGTCAGCTAG)	1.56
GTGTCAGCTTGGGTTCTAACCTGTTGCCT (site GTGTCATCTAG)	0.02
GTGTCATCTTGGGTTCTAACCTGTTGCCT (site GTGTCAACTAG)	0.142
GTGTCATCTTGGGTTCTAACCTGTTGCCT (site GTGTCACCTAG)	0.0183
GTGTCATCTTGGGTTCTAACCTGTTGCCT (site GTGTCAGCTAG)	0.0185
GTGTCATCTTGGGTTCTAACCTGTTGCCT (site GTGTCATCTAG)	0.935
GTGTCCTCTTGGGTTCTAACCTGTTGCGT (site CAAAAGGCTCG)	0.039
GTGTCCTCTTGGGTTCTAACCTGTTGCGT (site GTGTCCTCTAC)	2.58
GTGTCTCCTTGGGTTCTAACCTGTTGCCG (site GTCTCTCCTCG)	0.0207
GTGTCTCCTTGGGTTCTAACCTGTTGCCG (site GTGTCTCCTCG)	0.0325
